This note sets out measurements from US7923442B2, “Glutathione peroxidase mimetics and uses thereof” (UTI Limited Partnership, priority 2005, dated 2011).

Molecules are shown by their SMILES.

Data set [1] in a line: Catalytic activity of GPx mimetics: reduction of hydrogen peroxide with benzyl thiol. The method, then:
(§1) Catalytic activity of the compounds described herein can be determined via assessing the reduction of tert-butyl hydroxyperoxide and hydrogen peroxide with benzyl thiol for example as described in Example 1, herein. According to this embodiment, catalytic activity was compared by means of reaction half-life (t1/2), where the value reflects the time required to oxidize half of the thiol to its disulfide.
(§2) Diselenide 17, selenide 20 and spirodioxyselenurane 25 were prepared by literature procedures. NMR spectra were run in CDCl3 unless otherwise indicated. Chemical shifts for ^77Se and ^125Te NMR spectra are reported relative to dimethyl selenide and dimethyl telluride, respectively (δ 0.00). The spectra were recorded by using diphenyl diselenide in CDCl3 (δ 463 ppm) or selenium dioxide in D2O (δ 1302.6 ppm) for ^77Se NMR spectra, and diphenyl ditelluride in CDCl3 (δ 420.8 ppm) for ^125Te NMR spectra. Benzyl thiol was distilled prior to use and the concentrations of tert-butyl hydroperoxide and hydrogen peroxide were determined by iodometric analysis.
(§3) Glassware used in the measurement of catalytic activity (Example 9) was washed only with water followed by acetone, and was flame-dried prior to use. Contamination with traces of detergent or alkali produced abnormal kinetic results.
(§4) Catalytic activity of some of the compounds synthesized as described the foregoing Examples are described in the tables below, where the activity measured is in terms of comparability to selenoenzyme glutathione peroxidase. Reactions were performed with BnSH (0.029 M), the catalyst (0.0029 M) and either 56% TBHP (0.038 M), 38% TBHP (0.023 M) or 29% H2O2(0.040 M) in CH2Cl2-MeOH (95:5) at 18° C., except for entries 7, 8, 17 and 18, where the solvent was CH2Cl2-MeOH (4:1).

Data set [2] can be described thus: Catalytic activity of GPx mimetics: overall comparison of catalysts in words (both oxidants). The following applies: reduction of peroxides with BnSH; for catalytic activity compared to their selenium analogs 14 and 16: fastest reaction rates.
Source text: as §1, §4
In general, hydrogen peroxide was reduced faster than tert-butyl hydroperoxide in the presence of the selenium-based catalysts.

Data set [3] in a line: Catalytic activity of GPx mimetics: reduction of tert-butyl hydroperoxide with benzyl thiol. Here is the method: as §1, §2, §3, §4

As for `O=[Se]1CCCO1` (stereo not drawn) [Compound 14, reference compound], the “t1/2 (h), time required to oxidize half of the thiol to its disulfide” value (shortened to “t1/2 (h), time required to oxidize half”) in data set [1] is listed as 18 h.
Same read-out and setting: with `C1CO[Se]2(C1)CCCO2` [Compound 16, reference compound] the figure was 0.2 h.
Turning to `O=[Se]1OCc2ccccc21` (stereo not drawn) [Compound 19, Benzo-1,2-oxaselenolane Se-Oxide], the “catalytic activity compared to the parent cyclic seleninate ester 14 and spirodioxyselenurane 16” value in data set [2] is on record as “inferior catalysts”. Further, the “t1/2 (h), time required to oxidize half” value is 162 h in data set [3] and 18 h in data set [1].
Regarding `O=C1O[Se](=O)c2ccccc21` (stereo not drawn) [Compound 22, Benzo-3-oxo-1,2-Oxaselenolane Se-Oxide], in data set [2], the “catalytic activity compared to the parent cyclic seleninate ester 14 and spirodioxyselenurane 16” value is “inferior catalysts”. The “t1/2 (h), time required to oxidize half” value in data set [3] is 252 h; in data set [1] it was 73 h.
The corresponding values for `c1ccc2c(c1)CO[Se]21OCc2ccccc21` [Compound 24, Spirodioxyselenurane] are “inferior catalysts”, 62 h and 5.5 h.
On the same counts, the results for `O=C1O[Se]2(OC(=O)c3ccccc32)c2ccccc21` [Compound 25, Spirodioxyselenurane, reference compound] are “inferior catalysts”, 113 h and 35 h.
For `O=[Te]1CCCO1` [Compound 27, 1,2-Oxatellurolane Te-oxide], the “catalytic activity compared to their selenium analogs 14 and 16” value in data set [2] was “superior catalysts”.
Regarding `C1CO[Te]2(C1)CCCO2` [Compound 29, Spirodioxytellurane], the “catalytic activity compared to their selenium analogs 14 and 16” value in data set [2] is recorded as “superior catalysts”.
Take `COc1ccc2c(c1)CO[Se]2=O` (stereo not drawn) [Compound 91, 5-metboxybenzo-1,2-oxaselenolane Se-oxide]: the figures for the “t1/2 (h), time required to oxidize half” value in data set [3] and in data set [1] were 81 h and 28 h, respectively.
As usually defined, the melting point is the temperature, or range, at which the solid turns liquid. Compound `O=[Se]1OCc2cc(F)ccc21` (stereo not drawn) [Compound 93, 5-fluorobenzo-1,2-oxaselenolane Se-oxide] showed a melting point of 141 to 142 °C. Further, the “t1/2 (h), time required to oxidize half” value in data set [3] is 238 h. Also, the “t1/2 (h), time required to oxidize half” value in data set [1] turned out to be 39 h.
On the same counts, the results for `COc1ccc2c(c1)CO[Se]21OCc2cc(OC)ccc21` [Compound 126, spirodioxyselenurane] are 171 to 173 °C, 39 h and 3.3 h.
On the same counts, the results for `Fc1ccc2c(c1)CO[Se]21OCc2cc(F)ccc21` [Compound 127, spirodioxyselenurane] are 189 to 191 °C, 181 h and 16 h.
